Data taken from paper PMC9500755, “Albumin-Mediated Size Exclusion Chromatography: The Apparent Molecular Weight of PSMA Radioligands as Novel Parameter to Estimate Their Blood Clearance Kinetics” (Pharmaceuticals, 2022).

Columns and labels:
[1] = parameters: method as in PMID 30105912, PMID 29684274; conditions: 177Lu-labeled, mice; cited from earlier work
[2] = target: T1, human serum albumin (HSA) (Homo sapiens, UniProt P02768); experiment: Albumin-mediated size exclusion chromatography (AMSEC); assay type: in vitro ADME; conditions: for tR,AMSEC (retention time in AMSEC run): 177Lu-labeled ligand, mobile phase 700 µM HSA in PBS pH 7.4, Superdex 75 Increase, corrected for detector offset, normalized to column 1; for Retention factor k: fraction of time the radioligand is complexed to HSA during the AMSEC run, Equation (2); for MWapp,raw (raw apparent molecular weight): from tR,AMSEC by column calibration, 700 µM HSA in PBS pH 7.4; for MWapp,norm. (normalized apparent molecular weight): from tR,norm. by column calibration; for tR,norm. (normalized retention time): normalized with tR,blank, tR,HSA and tR,acetone, Equation (5)
T1 construct: purchased Biowest, Nuaillé, France
T1 sequence (P02768 25-609): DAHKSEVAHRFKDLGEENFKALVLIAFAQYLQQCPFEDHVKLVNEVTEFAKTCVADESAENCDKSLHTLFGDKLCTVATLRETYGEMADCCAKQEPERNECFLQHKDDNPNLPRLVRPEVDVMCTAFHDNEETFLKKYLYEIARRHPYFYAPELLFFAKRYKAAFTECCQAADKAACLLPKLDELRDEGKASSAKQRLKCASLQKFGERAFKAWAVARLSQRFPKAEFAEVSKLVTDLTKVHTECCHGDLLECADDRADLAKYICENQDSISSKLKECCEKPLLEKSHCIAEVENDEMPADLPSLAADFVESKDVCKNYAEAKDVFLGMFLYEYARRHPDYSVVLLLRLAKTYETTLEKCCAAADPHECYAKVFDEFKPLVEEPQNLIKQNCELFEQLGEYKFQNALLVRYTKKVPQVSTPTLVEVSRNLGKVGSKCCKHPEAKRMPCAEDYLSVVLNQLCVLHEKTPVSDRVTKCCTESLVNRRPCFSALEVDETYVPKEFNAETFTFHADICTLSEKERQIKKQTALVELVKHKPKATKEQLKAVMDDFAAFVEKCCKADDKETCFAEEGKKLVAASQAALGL
Procedure: All size exclusion chromatographic (SEC) experiments were carried out using the above-mentioned HPLC system equipped with a Superdex 75 Increase 10/300 GL gel filtration size exclusion column (fractionation range 70–3 kDa, GE Healthcare, Uppsala, Sweden). Eluents at room temperature, a constant flow rate of 0.8 mL/min, and an acquisition time of 35 min were generally applied. The column was calibrated as recommended by the manufacturer using a commercially available set of proteins (Gel Filtration LMW Calibration Kit, GE Healthcare, Buckinghamshire, UK). Retention times of calibration proteins and calculated calibration parameters are given in the Supplementary Materials (Table S3). UV signal detection occurred at 280 nm.
All retention times of radio signals were corrected for the offset between the UV-vis detector and radio-detector (Δt = 0.084 min). Throughout the development of the AMSEC method, three gel filtration columns of the same type were used for experiments (most data were acquired using column 1). As calculations were based on absolute empirical retention times that inherently differed slightly from column to column, all retention times determined on column 2 and column 3 were mathematically converted to an equivalent retention time on column 1 using the columns’ calibration parameters. A detailed description of these calculations is provided in the Supplementary Materials.
All numerical retention times explicitly given in running text or tables and plotted in diagrams are already corrected for the offset between UV-vis and radio-detector and, if initially determined on columns 2 or 3, converted to the equivalent retention time on column 1 (for detailed information, see Equations (S1) and (S2) and Table S1 in the Supplementary Materials).
AMSEC runs were executed with a solution of HSA (Biowest, Nuaillé, France) in PBS (pH 7.4) at physiological concentration (700 µM) as a mobile phase. Upon injection of approximately 1.0 MBq (5–10 µL) of a radioligand, the elution profile was monitored via radioactivity detection, and the retention times of observed radiopeaks (tR,AMSEC) were determined via semi-automated peak integration. By means of calibration, retention times were translated into a ligand-specific raw apparent molecular weight (MWapp,raw) as a parameter to assess the extent of HSA binding (for calculation, see Equation (S6) in the Supplementary Materials). rhPSMA-7.3 served as an internal standard during AMSEC studies and was co-evaluated whenever new data were collected to assess the reproducibility of the method (n = 14).
For reference purposes, conventional SEC runs of HSA (100 µL, 3 mg/mL) and acetone (100 µL, 2% in PBS pH 7.4) with PBS (pH 7.4) as a mobile phase were executed. The retention time of HSA (tR,HSA) corresponded to the maximal MWapp,raw, theoretically observable in AMSEC runs in the case of continuous binding of a radioligand to HSA (equivalent to 100% HSA binding). The retention time of acetone (tR,acetone) served as a reference for a ligand with no interaction with HSA in AMSEC runs (equivalent to 0% HSA binding) and an actual physical molecular weight below the column fractionation range (this was the case for all investigated radioligands).
MWapp,raw values determined as described in Section 3.3.1. were normalized in order to account for ligand-specific influences on experimentally determined retention times and to establish quantitative comparability of the obtained MWapp,norm. values. The normalization was based on a SEC run (referred to as blank run) of a radioligand executed in analogy to the AMSEC run but using PBS (pH 7.4) without HSA as a mobile phase. The determined retention time tR,blank, together with the retention time tR,AMSEC from the AMSEC run, tR,HSA, and tR,acetone determined in Section 3.3.1, were used to calculate a normalized retention time tR,norm. for every radioligand (for formulae and details on the calculation, see Section 2. Results and Discussion). […]

[3] = parameters: method as in PMID 26985056; conditions: 177Lu-labeled; cited from earlier work
[4] = Calculated glomerular sieving coefficients (GSCcalc) from MWapp,norm.; conditions: from MWapp,norm. via sigmoidal fit of MW vs GSC of 12 human plasma proteins
Source text: Therefore, when comparing the MWapp,norm. of different radioligands, not only their relative difference but also the absolute values of MWapp,norm. are of importance. […] These GSCcalc determined for all the PSMA radioligands (Table 2, Figure 5) inherently account for the exponential nature of the relationship between their albumin-mediated MWapp,norm. and MW-dependent GF and could, therefore, be a useful parameter to estimate differences in blood clearance by means of GF. The GSC is defined as the ratio of a compound’s concentration in the glomerular filtrate to that in the blood; thus, a GSC of 1 represents unhindered filtration through the capillary membrane in the glomerulus, while a lower GSC corresponds to a restricted filtration and, thus, a prolonged circulatory half-life. […] As an example, a GSCcalc of 0.408 was determined for rhPSMA-7.3, while an almost three-fold smaller GSCcalc of 0.138 was determined for rhPSMA-7.4. […] This would constitute a dramatic physiological effect that, in its extent, could not be predicted only based on subtle differences in molecular structure and other conventionally determined in vitro parameters. We, therefore, believe that the MWapp,norm. and GSCcalc obtained by AMSEC could be important parameters that, already at the preclinical stage of development, could help in the selection of promising therapeutic radioligands with pharmacokinetic profiles suitable for patient application.
A sigmoidal fit of molecular weights (MWs, in kDa) and corresponding glomerular sieving coefficients (GSCs) of 12 human plasma proteins (data taken from Norden et al.) was executed using OriginPro software. A dose-response model based on Equation (6) was applied:(6) GSC=A1+A2−A1/1+10^(LOGx0−MW)·p.
The values of bottom asymptote A1 and top asymptote A2 were set to 4.2∙10^−5 (GSC of IgG, data taken from Norden et al.) and 1 (equaling complete sieving), respectively. Curve fitting gave the center parameter LOGx0 = 19.36833 and the Hill slope p = −0.12108. GSCcalc values were calculated via implementation of fitting parameters and the experimentally determined MWapp,norm. in Equation (6).

[5] = parameters: method as in PMID 35086894; conditions: head-to-head with four isomers of rhPSMA-7 and rhPSMA-10.2; cited from earlier work

SMILES | therapeutic efficacy compared to PSMA-617 [1] | tR,AMSEC (retention time in AMSEC run) [2] [min] | Retention factor k [2] | MWapp,raw (raw apparent molecular weight) [2] [kDa] | MWapp,norm. (normalized apparent molecular weight) [2] [kDa] | tR,norm. (normalized retention time) [2] [min] | blood clearance [3] | GSCcalc (calculated glomerular sieving coefficient) [4] | MWapp,norm. higher than that of the stereoisomer ([2]; rhPSMA-7.2 vs rhPSMA-7.1, rhPSMA-10.1 vs rhPSMA-10.2) [%] | blood clearance in mice [5]
Cc1ccc(CCCC(=O)NCCCC[C@H](NC(=O)CN2CCN(CC(=O)O)CCN(CC(=O)O)CCN(CC(=O)O)CC2)C(=O)NCC2CCC(C(=O)N[C@@H](Cc3ccc4ccccc4c3)C(=O)NCCCC[C@H](NC(=O)N[C@@H](CCC(=O)O)C(=O)O)C(=O)O)CC2)cc1 (stereo partly shown) (177Lu complex, metal not drawn) [PSMA-ALB-56] | superior therapeutic efficacy | – | – | – | – | – | – | – | – | –
O=C(O)CC[C@H](NC(=O)N[C@@H](CCCCNC(=O)[C@H](Cc1ccc2ccccc2c1)NC(=O)[C@H]1CC[C@H](CNC(=O)CN2CCN(CC(=O)O)CCN(CC(=O)O)CCN(CC(=O)O)CC2)CC1)C(=O)O)C(=O)O (177Lu complex, metal not drawn) [PSMA-617, reference compound] | – | 17.586 | 0.447 | 13.8 | 9.4 | 18.988 | rapid, bi-phasic blood clearance | 0.942 | – | –
CC(C)(C)[Si](F)(c1ccc(C(=O)NC[C@@H](NC(=O)CN2CCN(CC(=O)[O-])CCN(CC(=O)[O-])CCN(CC(=O)[O-])CC2)C(=O)N[C@H](CCCCNC(=O)CCC(=O)NCCC[C@@H](NC(=O)CC[C@H](NC(=O)N[C@@H](CCC(=O)O)C(=O)O)C(=O)O)C(=O)O)C(=O)O)cc1)C(C)(C)C.[177Lu+3] [rhPSMA-10.1] | – | 15.410 | 0.616 | 25.3 | 17.2 | 16.789 | – | 0.644 | 30 | fast blood clearance
